Source: the NIST ThermoML archive (doi:10.1021/je060496l)

Key:
[1] = 101 kPa, Liquid
[2] = xn = mol fraction of the nth substance listed; details: 101 kPa, Liquid

CC(O)CO (configuration not stated) [1,2-propanediol]
[1]
Details | mass density [kg/m3]
298.15 K | 1032.5
303.15 K | 1029.2
308.15 K | 1025.3
313.15 K | 1021.5
318.15 K | 1018
323.15 K | 1014
328.15 K | 1010.2
333.15 K | 1006.2

CC(O)CO (configuration not stated) [1,2-propanediol] + OCC(O)CO
mass density [kg/m3], [2]
Details | x2 = 0 | x2 = 0.0841 | x2 = 0.1712 | x2 = 0.2615 | x2 = 0.3552 | x2 = 0.4524 | x2 = 0.5534 | x2 = 0.6585 | x2 = 0.7677 | x2 = 0.8815
298.15 K | 1032.5 | 1052.6 | 1072.7 | 1094.1 | 1115.8 | 1138.3 | 1161 | 1184.4 | 1207.8 | 1233.3
303.15 K | 1029.2 | 1049.2 | 1069.6 | 1090.5 | 1112.6 | 1134.8 | 1157.5 | 1181.2 | 1205 | 1230.1
308.15 K | 1025.3 | 1045.7 | 1066.1 | 1087.1 | 1109.3 | 1131.4 | 1154.2 | 1178 | 1202.2 | 1227.4
313.15 K | 1021.5 | 1042 | 1062.4 | 1083.8 | 1105.6 | 1128.2 | 1151.2 | 1175.1 | 1199.2 | 1224.4
318.15 K | 1018 | 1038.5 | 1058.6 | 1080.2 | 1102.3 | 1124.8 | 1147.9 | 1171.5 | 1195.6 | 1221
323.15 K | 1014 | 1034.7 | 1055 | 1076.3 | 1098.3 | 1121.2 | 1144.1 | 1168.1 | 1192.5 | 1218
328.15 K | 1010.2 | 1031 | 1051.4 | 1072.7 | 1094.7 | 1117.5 | 1140.5 | 1164.6 | 1189 | 1214.7
333.15 K | 1006.2 | 1027.2 | 1047.6 | 1069.2 | 1091.2 | 1114.3 | 1137.3 | 1161.3 | 1185.8 | 1211.3

OCC(O)CO [glycerol]
[1]
Details | mass density [kg/m3]
298.15 K | 1258.9
303.15 K | 1255.6
308.15 K | 1252.7
313.15 K | 1249.5
318.15 K | 1246.2
323.15 K | 1242.9
328.15 K | 1239.6
333.15 K | 1236

OCC(O)CO [glycerol] + CC(C)O
mass density [kg/m3], [2]
Details | x1 = 0.0676 | x1 = 0.1402 | x1 = 0.2185 | x1 = 0.3031 | x1 = 0.3949 | x1 = 0.4946 | x1 = 0.6036 | x1 = 0.723 | x1 = 0.8545 | x1 = 1
298.15 K | 813.5 | 848.6 | 887.5 | 929.1 | 974.3 | 1023.8 | 1077 | 1135.2 | 1196.5 | 1258.9
303.15 K | 809.5 | 844.7 | 883.8 | 926.4 | 970.6 | 1020 | 1073.4 | 1131.9 | 1193.4 | 1255.6
308.15 K | 805.5 | 840.5 | 879.9 | 922.3 | 967.3 | 1016.2 | 1070.4 | 1128.5 | 1190 | 1252.7
313.15 K | 801.4 | 836.1 | 875.9 | 918.4 | 963.4 | 1012.6 | 1067 | 1125 | 1186.8 | 1249.5
318.15 K | 796.8 | 831.9 | 871.7 | 914.5 | 959.2 | 1008.7 | 1063.1 | 1121.3 | 1183.2 | 1246.2
323.15 K | 792.2 | 827.6 | 867.4 | 910.2 | 955.3 | 1004.8 | 1059.6 | 1117.6 | 1180.3 | 1242.9
328.15 K | 787.5 | 823.3 | 863.3 | 906.2 | 951.3 | 1000.9 | 1055.7 | 1114.1 | 1176.6 | 1239.6
333.15 K | 782.9 | 818.4 | 858.8 | 901.6 | 947.5 | 997.2 | 1051.9 | 1110.5 | 1173.1 | 1236

OCC(O)CO [glycerol] + CC(O)CO
[2], x1 = 1
Details | mass density [kg/m3]
298.15 K | 1258.9
303.15 K | 1255.6
308.15 K | 1252.7
313.15 K | 1249.5
318.15 K | 1246.2
323.15 K | 1242.9
328.15 K | 1239.6
333.15 K | 1236

OCC(O)CO [glycerol] + CCCO
mass density [kg/m3], [2]
Details | x1 = 0.0676 | x1 = 0.1402 | x1 = 0.2185 | x1 = 0.3031 | x1 = 0.3949 | x1 = 0.4946 | x1 = 0.6036 | x1 = 0.723 | x1 = 0.8545 | x1 = 1
298.15 K | 832.8 | 867.3 | 903.5 | 942.9 | 986 | 1032.7 | 1083.1 | 1138.8 | 1198.7 | 1258.9
303.15 K | 828.9 | 863.2 | 900 | 939.3 | 982.1 | 1029.5 | 1079.9 | 1135.7 | 1195.6 | 1255.6
308.15 K | 825 | 859.4 | 896 | 935.6 | 978.4 | 1025.9 | 1076.3 | 1132.4 | 1192.7 | 1252.7
313.15 K | 820.7 | 855.4 | 892.1 | 931.5 | 974.7 | 1022.3 | 1072.7 | 1128.8 | 1189.5 | 1249.5
318.15 K | 816.8 | 851.3 | 888.3 | 927.7 | 970.8 | 1018.4 | 1069.2 | 1125.5 | 1186.1 | 1246.2
323.15 K | 812.5 | 847.2 | 884.1 | 923.6 | 966.8 | 1014.7 | 1065.5 | 1122 | 1182.7 | 1242.9
328.15 K | 808.4 | 843.1 | 880.3 | 919.7 | 963.3 | 1010.8 | 1061.8 | 1118.3 | 1179.2 | 1239.6
333.15 K | 804.3 | 839.2 | 876.3 | 915.7 | 959.4 | 1006.8 | 1058 | 1114.3 | 1175.8 | 1236

OCC(O)CO [glycerol] + OCCCO
[2], x1 = 1
Details | mass density [kg/m3]
298.15 K | 1258.9
303.15 K | 1255.6
308.15 K | 1252.7
313.15 K | 1249.5
318.15 K | 1246.2
323.15 K | 1242.9
328.15 K | 1239.6
333.15 K | 1236

OCCCO [propan-1,3-diol]
[1]
Details | mass density [kg/m3]
298.15 K | 1049.9
303.15 K | 1047
308.15 K | 1044.1
313.15 K | 1040.8
318.15 K | 1037.8
323.15 K | 1034.8
328.15 K | 1031.4
333.15 K | 1028.2

OCCCO [propan-1,3-diol] + OCC(O)CO
mass density [kg/m3], [2]
Details | x2 = 0 | x2 = 0.0841 | x2 = 0.1712 | x2 = 0.2615 | x2 = 0.3552 | x2 = 0.4524 | x2 = 0.5534 | x2 = 0.6585 | x2 = 0.7677 | x2 = 0.8815
298.15 K | 1049.9 | 1067.8 | 1086.4 | 1105.7 | 1125.6 | 1146.4 | 1167.6 | 1189.3 | 1212.6 | 1235.2
303.15 K | 1047 | 1065 | 1083.5 | 1103 | 1122.8 | 1143.4 | 1164.6 | 1186.4 | 1209 | 1232.1
308.15 K | 1044.1 | 1062 | 1080.6 | 1100 | 1119.8 | 1140.6 | 1161.8 | 1183.5 | 1206.1 | 1229.3
313.15 K | 1040.8 | 1058.8 | 1077.5 | 1096.9 | 1116.8 | 1137.3 | 1158.7 | 1180.4 | 1203 | 1226.1
318.15 K | 1037.8 | 1055.7 | 1074.5 | 1093.9 | 1113.7 | 1134.3 | 1155.6 | 1177.2 | 1199.7 | 1222.8
323.15 K | 1034.8 | 1052.7 | 1071.4 | 1090.9 | 1110.7 | 1131.2 | 1152.5 | 1174.1 | 1196.6 | 1219.8
328.15 K | 1031.4 | 1049.3 | 1068.1 | 1087.6 | 1107.5 | 1127.8 | 1149.2 | 1170.8 | 1193.4 | 1216.6
333.15 K | 1028.2 | 1046.1 | 1064.9 | 1084.4 | 1104.1 | 1124.6 | 1145.9 | 1167.5 | 1190 | 1213.3

CCCO [propan-1-ol]
[1]
Details | mass density [kg/m3]
298.15 K | 799.6
303.15 K | 795.5
308.15 K | 791.5
313.15 K | 787.3
318.15 K | 783.3
323.15 K | 779
328.15 K | 774.9
333.15 K | 770.8

CCCO [propan-1-ol] + OCC(O)CO
[2], x2 = 0
Details | mass density [kg/m3]
298.15 K | 799.6
303.15 K | 795.5
308.15 K | 791.5
313.15 K | 787.3
318.15 K | 783.3
323.15 K | 779
328.15 K | 774.9
333.15 K | 770.8

CC(C)O [propan-2-ol]
[1]
Details | mass density [kg/m3]
298.15 K | 780.6
303.15 K | 776.6
308.15 K | 772.3
313.15 K | 767.9
318.15 K | 763.3
323.15 K | 758.6
328.15 K | 753.8
333.15 K | 748.9

CC(C)O [propan-2-ol] + OCC(O)CO
[2], x2 = 0
Details | mass density [kg/m3]
298.15 K | 780.6
303.15 K | 776.6
308.15 K | 772.3
313.15 K | 767.9
318.15 K | 763.3
323.15 K | 758.6
328.15 K | 753.8
333.15 K | 748.9
